Test results as given in article PMC8307506, “Identification of Dihydromyricetin and Metabolites in Serum and Brain Associated with Acute Anti-Ethanol Intoxicating Effects in Mice” (International Journal of Molecular Sciences, 2021).
Entries after “also recorded” stand apart in the source; their conditions may differ.

What was measured:
[1] = Identification of DHM metabolites in serum and brain by UPLC-QqQ/MS; assay type: in vivo, mice; settings: for Detection of metabolite in brain samples: male and female mice 15 min post DHM IP 50 mg/kg; for Detection of metabolite in serum: mice, following DHM 50 mg/kg IP and PO
Protocol: Eight-week-old male and female C57BL/6J mice (Jackson’s Laboratories, Bar Harbor, ME, USA) were housed 4 mice to a cage (separated by sex) and maintained on 12-h light, 12-h dark cycles (lights on at 0700 h) in the animal facility at the Department of Animal Sciences, Rutgers University. Following 1-week acclimation, animals were given ad libitum access to water and a polyphenol-free diet (PFD; 3.82 kcal/g, 10% fat, 20% protein, 70% carbohydrate; D12450H; Research Diets, Inc., New Brunswick, NJ, USA) for at least 10 days. For PK studies, after an overnight fast, mice were administered 50 mg/kg DHM (dissolved in 0.9% saline with 10% DMSO) by either IP injection or oral gavage. Oral gavage was performed using single-use, sterile plastic feeding tubes for mice (20 ga × 30 mm; cat# FTP-20-30, Instech Laboratories, (Plymouth Meeting, PA, USA). Mice were deeply anesthetized with 5% isoflurane mixed with oxygen, and blood was collected by cardiac puncture. Following cardiac puncture, animals were exsanguinated and transcardial perfusion with 0.9% saline was performed to ensure blood removal from the brain tissue. Blood and brain samples were collected from a total of 85 mice at 0.25, 0.75, 1.5, 3, 6, 12, 24 h (3–4 mice for each sex and timepoint). Tissues were immediately homogenized with 0.2% formic acid at 1:2 (w/v), and frozen at −80 °C until analysis. Blood was centrifuged at 3000× g for 10 min at 4 °C to isolate serum. For efficacy studies, mice (n = 8/sex) were fasted at 5 h prior to Ethanol gavage 5 g/kg (37% Ethanol in water). DHM 50 mg/kg IP (dissolved in 0.9% saline with 10% DMSO) was administered at 0, 15, 45, 90 and 180 min prior to Ethanol oral gavage. Each mouse was tested at each time point 7 days apart over 6-week period. At the time of Ethanol gavage, mice were placed in oversized conical holders (L: 152 mm X W: 37 mm) and observed for ability to return upright upon being placed in a supine position. Duration of LORR was determined by ability to return upright 3 times within 30 s. To determine whether ethanol-induced tolerance developed, one week (Week 1; Baseline) prior to the 6-week repeated DHM dosing study all mice were oral dose with ethanol (5 g/kg) without any IP injection and LORR was measured. Mice were then re-tested in a similar fashion with oral ethanol 1 week after the DHM 6-week period (Week 8; Post). […] All animal studies were approved by the Institutional Animal Care and Use Committee of Rutgers University (Bello; PROTO999900014, OLAW #A3262-01, 15 March 2017) and complied with NIH Guide for the Care and Use of Laboratory Animals.
All serum samples were stored at −80 °C and conditioned to room temperature prior to analysis. An aliquot of 100 µL of serum, 20 µL 4M HCl, and 50 µL of internal standard (IS) solution (417 ng/mL isoquercetin in EtOAc) were combined in an Eppendorf tube. An aliquot of 500 µL of EtOAc was added and samples were vortexed for 30 s. Samples were then centrifuged at 3000× g for 2 min and the supernatant transferred to a glass vial. Samples were extracted 2 more times with EtOAc and the supernatant added to the corresponding vial containing 10 µL of 2% ascorbic acid in methanol (MeOH). Samples were then dried under vacuum, reconstituted with 100 µL of 45% MeOH in water with 0.1% formic acid (FA), centrifuged at 16,000× g for 10 min and transferred to an HPLC vial for analysis.
Whole brain samples were homogenized in FA. All brain homogenates were stored at −80 °C and conditioned to room temperature prior to analysis. An aliquot of 300 µL of brain homogenate was added to 50 µL IS solution (417 ng/mL in EtOAc) and 500 µL of EtOAc in an Eppendorf tube. Samples were then vortexed for 30 s and sonicated for 1 min. Samples were centrifuged for 2 min at 3000× g and the supernatant transferred to a glass vial with 10 µL of 2% ascorbic acid in methanol. Samples were extracted two more times with 500 µL EtOAc and the supernatant transferred to the corresponding vial and dried under vacuum. […]

[2] = target: T1, α5β3γ2 GABAA receptors (Homo sapiens, UniProt P18507+P28472+P31644); assay: Two-electrode voltage clamp electrophysiology in Xenopus oocytes in the presence of GABA; assay type: cell-based; settings: compound 10 µM, GABA 10 µM
T1 construct: expressed in transfected cells; host or cells: Xenopus oocytes (injected with cDNA)
T1 sequence (P31644 32-462): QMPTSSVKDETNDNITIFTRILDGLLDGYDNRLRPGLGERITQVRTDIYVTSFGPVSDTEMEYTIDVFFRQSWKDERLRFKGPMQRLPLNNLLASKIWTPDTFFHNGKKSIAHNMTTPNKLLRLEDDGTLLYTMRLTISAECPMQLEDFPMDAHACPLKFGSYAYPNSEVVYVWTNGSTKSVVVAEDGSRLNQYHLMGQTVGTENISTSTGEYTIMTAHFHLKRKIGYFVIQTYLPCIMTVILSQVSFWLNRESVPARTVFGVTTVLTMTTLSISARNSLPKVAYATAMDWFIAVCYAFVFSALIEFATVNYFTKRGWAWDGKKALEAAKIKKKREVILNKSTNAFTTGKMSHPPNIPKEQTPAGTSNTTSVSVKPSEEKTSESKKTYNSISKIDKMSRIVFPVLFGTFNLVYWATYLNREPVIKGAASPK
T1 sequence (P28472 26-473): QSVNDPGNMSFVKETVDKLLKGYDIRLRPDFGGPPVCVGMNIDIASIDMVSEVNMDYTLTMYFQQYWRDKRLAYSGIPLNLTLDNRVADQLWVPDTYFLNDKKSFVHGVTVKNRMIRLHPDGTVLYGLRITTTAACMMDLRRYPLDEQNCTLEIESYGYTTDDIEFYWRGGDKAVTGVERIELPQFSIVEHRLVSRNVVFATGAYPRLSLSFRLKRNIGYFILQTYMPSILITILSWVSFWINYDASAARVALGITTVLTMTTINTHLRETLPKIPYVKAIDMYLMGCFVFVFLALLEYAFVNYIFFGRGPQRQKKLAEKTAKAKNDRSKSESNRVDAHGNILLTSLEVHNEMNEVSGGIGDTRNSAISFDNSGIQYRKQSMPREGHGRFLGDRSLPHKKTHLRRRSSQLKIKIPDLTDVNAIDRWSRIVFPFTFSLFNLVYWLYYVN
T1 sequence (P18507 40-475): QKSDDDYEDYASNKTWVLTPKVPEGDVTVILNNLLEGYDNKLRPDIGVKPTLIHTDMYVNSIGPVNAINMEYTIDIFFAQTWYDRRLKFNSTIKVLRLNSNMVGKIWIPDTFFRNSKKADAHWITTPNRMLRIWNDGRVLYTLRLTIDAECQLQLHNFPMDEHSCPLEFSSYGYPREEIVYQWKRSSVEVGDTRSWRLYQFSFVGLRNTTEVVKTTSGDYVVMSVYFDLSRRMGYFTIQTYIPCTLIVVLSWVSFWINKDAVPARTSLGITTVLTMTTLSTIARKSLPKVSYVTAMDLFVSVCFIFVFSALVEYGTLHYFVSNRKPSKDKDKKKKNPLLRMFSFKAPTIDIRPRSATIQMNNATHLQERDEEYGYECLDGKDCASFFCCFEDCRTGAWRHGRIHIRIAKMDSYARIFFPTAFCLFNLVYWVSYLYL
Protocol: Xenopus oocytes were stored in incubation media (pH 7.5), consisting of ND96 supplemented with 2 mM sodium pyruvate, […] gentamycin, and 10 mL heat inactivated HyClone horse serum. Stage 4 to 5 oocytes were injected with 40 nL of cDNA coding for α5, β3, and γ2 subunits in a ratio of 1:1:10, utilizing a Drummond Nanoject III. Injected oocytes were stored at 18 °C and used in electrophysiology studies within 2–7 days of injection.
Whole cell two-electrode voltage clamp (TEVC) recording were conducted on oocytes in the presence of GABA, according to previously reported methods. Oocytes were voltage clamped at a membrane potential of −70 mV. The oocyte recording chamber was continuously perfused with modified bath solution (MBS) with select compound (10 µM) and GABA (10 µM), with a final concentration of 1% DMSO [22, 44]. […] Oocytes were perfused at a rate of 3 mL/min. Electrophysiology recordings were conducted in triplicate compound for each compound. The change of GABAAR activity was determined by comparison of GABAAR potentiation to the EC20 with control saline in the presence of GABA.
Pharmacokinetic parameters were calculated using noncompartmental analysis. Elimination half-life (T1/2) was calculated with R software from the linear regression of the terminal phase of the log serum concentration-time curve. The AUC0→24 was calculated with OriginLab software by trapezoidal analysis of the serum concentration-time plot. Cmax and Tmax were determined directly from observed data. Data are expressed as mean ± SEM. Statistical significance between AUC0→24 among test groups was calculated with an independent t-test (GraphPad software, San Diego, CA, USA). Time to LORR was analyzed by repeated measured ANOVA. Tolerance was determined by mean split in LORR response and confirmed with paired t-test (Week 1 vs. Week 8). Statistical significance of serum concentrations for individual time points was calculated using a two-way analysis of variance (ANOVA) analysis. Post hoc Bonferroni tests were performed when justified. Statistical significance of electrophysiology results compound GABAergic modulation was determined using a paired t-test (Vehicle control vs. Compound, GraphPad software, San Diego CA, USA). p < 0.05 was considered significant.

Molecule | Detection of metabolite in brain samples [1] | Detection of metabolite in serum [1] | GABAAR potentiation [2] | GABAAR potentiation ([2]; mean ± SEM)
COc1cc(C2Oc3cc(O)cc(OC4OC(C(=O)O)C(O)C(O)C4O)c3C(=O)C2O)cc(O)c1O (stereo not drawn) [G-3′-Me-DHM, glucuronide-3′-O-methoxy-dihydromyricetin] | – | detected | – | –
COc1c(O)cc(C2Oc3cc(O)cc(OC4OC(C(=O)O)C(O)C(O)C4O)c3C(=O)C2O)cc1O (stereo not drawn) [G-4′-Me-DHM] | – | detected | – | –
O=C1c2c(OC3OC(C(=O)O)C(O)C(O)C3O)cc(O)cc2OC(c2cc(O)c(O)c(O)c2)C1O (stereo not drawn) [G-DHM, glucuronide-dihydromyricetin] | – | detected | – | –
glucuronide-dehydroxy-dihydromyricetin [G-DeOH-DHM] | – | detected | – | –

Other lines, results leading:

Detection of metabolite in brain samples [1] | Detection of metabolite in serum [1] | GABAAR potentiation [2] | GABAAR potentiation ([2]; mean ± SEM) | Molecule
trace levels | detected | −12.6% | – | COc1c(O)cc([C@H]2Oc3cc(O)cc(O)c3C(=O)[C@@H]2O)cc1O (racemic) [4′-Me-DHM, 4′-O-methyl-dihydromyricetin]
trace levels | detected | – | – | COc1cc(C2Oc3cc(O)cc(O)c3C(=O)C2O)cc(O)c1O (stereo not drawn) [3′-Me-DHM, 3′-O-methyl-dihydromyricetin]
– | detected; also recorded: trace levels | +5.2% | +5.3 ± 2.0 | O=C1c2c(O)cc(O)cc2OC(c2cc(O)cc(O)c2)C1O (stereo not drawn) [4′-DeOH-DHM, 4′-dehydroxy-dihydromyricetin]
